In patent US9296704B2, “Substituted pyrimidines as protein kinase inhibitors” (CELGENE AVILOMICS RESEARCH, INC., priority 2007, dated 2016) one finds IC50 data, which are given here for ten compounds.

pIC50: −log10 of the molar value.

What all share (type): biochemical
For one assay, the target named is T1, EGFR (WT) (Homo sapiens, UniProt P00533).
T1 construct: purchased Invitrogen PV3872
Nature of the assay: Omnia continuous-read kinase assay, EGFR (WT). To be noted: read-out: EGFR inhibtion. The procedure, abridged:
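Enzyme pre-incubated 30 min at 27 °C with compound, then ATP/Y12-Sox peptide added; fluorescence (ex360/em485) read continuously 60 min in 20 mM Tris pH 7.5, 5 mM MgCl2, 0.2 mM DTT. WT: 5 nM enzyme, […]; T790M/L858R: 3 nM enzyme, […]. IC50 from initial velocities, variable-slope fit.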

A further assay deals with T2, JAK3 (Homo sapiens, UniProt P52333).
T2 sequence (P52333 1-1124): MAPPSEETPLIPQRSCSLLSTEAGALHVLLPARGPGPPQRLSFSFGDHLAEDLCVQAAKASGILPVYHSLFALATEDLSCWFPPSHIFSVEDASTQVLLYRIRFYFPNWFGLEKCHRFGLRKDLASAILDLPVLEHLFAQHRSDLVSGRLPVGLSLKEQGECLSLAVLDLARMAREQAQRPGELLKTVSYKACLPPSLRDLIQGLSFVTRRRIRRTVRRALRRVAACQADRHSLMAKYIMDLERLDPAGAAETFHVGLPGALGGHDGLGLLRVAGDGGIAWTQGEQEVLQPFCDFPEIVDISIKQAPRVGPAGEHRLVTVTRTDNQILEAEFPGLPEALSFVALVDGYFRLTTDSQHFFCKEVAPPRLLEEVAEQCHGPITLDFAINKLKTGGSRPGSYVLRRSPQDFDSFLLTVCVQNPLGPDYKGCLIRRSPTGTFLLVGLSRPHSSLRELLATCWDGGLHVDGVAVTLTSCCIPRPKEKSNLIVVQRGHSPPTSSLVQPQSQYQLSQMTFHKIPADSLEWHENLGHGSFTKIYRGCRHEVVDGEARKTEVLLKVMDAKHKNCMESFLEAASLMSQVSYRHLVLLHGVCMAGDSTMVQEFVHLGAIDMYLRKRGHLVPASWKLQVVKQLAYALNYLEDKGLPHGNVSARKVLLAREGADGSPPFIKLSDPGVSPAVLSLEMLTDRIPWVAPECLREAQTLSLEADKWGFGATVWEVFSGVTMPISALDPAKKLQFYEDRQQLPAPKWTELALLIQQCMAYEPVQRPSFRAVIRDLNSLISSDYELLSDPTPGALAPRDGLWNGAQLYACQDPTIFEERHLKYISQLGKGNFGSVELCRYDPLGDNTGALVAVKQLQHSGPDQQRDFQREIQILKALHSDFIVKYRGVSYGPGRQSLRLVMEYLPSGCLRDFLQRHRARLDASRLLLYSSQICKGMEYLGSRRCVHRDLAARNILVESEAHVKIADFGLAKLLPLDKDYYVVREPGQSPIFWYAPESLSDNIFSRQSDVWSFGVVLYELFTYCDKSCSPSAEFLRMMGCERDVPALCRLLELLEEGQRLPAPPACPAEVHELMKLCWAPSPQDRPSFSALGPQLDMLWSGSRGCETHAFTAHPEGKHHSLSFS
The assay is described as follows: Omnia assay for potency against JAK3. To be noted: read-out: JAK3 Inhibition. The procedure, abridged:
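Continuous-read Omnia kinase assay with 5 nM JAK3, 5 μM ATP (near apparent Km) and 5 μM Y12-Sox peptide in Tris pH 7.5/MgCl2 buffer; enzyme pre-incubated with compound 30 min at 27 °C. Fluorescence (ex360/em485) read over 60 min; initial velocities fitted against inhibitor concentration to give IC50.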

In the next assay the target is T3, BMX (Homo sapiens, UniProt P51813).
T3 sequence (P51813 1-675): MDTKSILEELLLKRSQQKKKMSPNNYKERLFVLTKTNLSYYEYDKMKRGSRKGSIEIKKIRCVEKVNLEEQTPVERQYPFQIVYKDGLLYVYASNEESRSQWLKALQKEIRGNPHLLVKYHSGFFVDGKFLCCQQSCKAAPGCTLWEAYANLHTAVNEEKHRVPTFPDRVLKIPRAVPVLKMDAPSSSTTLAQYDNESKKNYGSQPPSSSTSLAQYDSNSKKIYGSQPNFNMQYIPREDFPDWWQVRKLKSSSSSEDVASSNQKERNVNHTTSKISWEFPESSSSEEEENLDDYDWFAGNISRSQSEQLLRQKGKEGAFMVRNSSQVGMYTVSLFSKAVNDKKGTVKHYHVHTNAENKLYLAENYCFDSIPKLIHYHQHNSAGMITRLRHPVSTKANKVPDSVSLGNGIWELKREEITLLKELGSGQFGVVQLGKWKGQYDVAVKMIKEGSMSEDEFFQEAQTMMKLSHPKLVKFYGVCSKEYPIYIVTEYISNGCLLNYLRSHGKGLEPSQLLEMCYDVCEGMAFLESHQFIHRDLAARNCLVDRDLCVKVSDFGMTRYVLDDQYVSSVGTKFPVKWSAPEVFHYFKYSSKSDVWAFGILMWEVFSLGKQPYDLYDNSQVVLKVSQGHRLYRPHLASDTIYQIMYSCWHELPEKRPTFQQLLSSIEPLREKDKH
Nature of the assay: Omnia assay for potency against BMX. To be noted: read-out: BMX inhibition.

T1 sequence (P00533 25-1210): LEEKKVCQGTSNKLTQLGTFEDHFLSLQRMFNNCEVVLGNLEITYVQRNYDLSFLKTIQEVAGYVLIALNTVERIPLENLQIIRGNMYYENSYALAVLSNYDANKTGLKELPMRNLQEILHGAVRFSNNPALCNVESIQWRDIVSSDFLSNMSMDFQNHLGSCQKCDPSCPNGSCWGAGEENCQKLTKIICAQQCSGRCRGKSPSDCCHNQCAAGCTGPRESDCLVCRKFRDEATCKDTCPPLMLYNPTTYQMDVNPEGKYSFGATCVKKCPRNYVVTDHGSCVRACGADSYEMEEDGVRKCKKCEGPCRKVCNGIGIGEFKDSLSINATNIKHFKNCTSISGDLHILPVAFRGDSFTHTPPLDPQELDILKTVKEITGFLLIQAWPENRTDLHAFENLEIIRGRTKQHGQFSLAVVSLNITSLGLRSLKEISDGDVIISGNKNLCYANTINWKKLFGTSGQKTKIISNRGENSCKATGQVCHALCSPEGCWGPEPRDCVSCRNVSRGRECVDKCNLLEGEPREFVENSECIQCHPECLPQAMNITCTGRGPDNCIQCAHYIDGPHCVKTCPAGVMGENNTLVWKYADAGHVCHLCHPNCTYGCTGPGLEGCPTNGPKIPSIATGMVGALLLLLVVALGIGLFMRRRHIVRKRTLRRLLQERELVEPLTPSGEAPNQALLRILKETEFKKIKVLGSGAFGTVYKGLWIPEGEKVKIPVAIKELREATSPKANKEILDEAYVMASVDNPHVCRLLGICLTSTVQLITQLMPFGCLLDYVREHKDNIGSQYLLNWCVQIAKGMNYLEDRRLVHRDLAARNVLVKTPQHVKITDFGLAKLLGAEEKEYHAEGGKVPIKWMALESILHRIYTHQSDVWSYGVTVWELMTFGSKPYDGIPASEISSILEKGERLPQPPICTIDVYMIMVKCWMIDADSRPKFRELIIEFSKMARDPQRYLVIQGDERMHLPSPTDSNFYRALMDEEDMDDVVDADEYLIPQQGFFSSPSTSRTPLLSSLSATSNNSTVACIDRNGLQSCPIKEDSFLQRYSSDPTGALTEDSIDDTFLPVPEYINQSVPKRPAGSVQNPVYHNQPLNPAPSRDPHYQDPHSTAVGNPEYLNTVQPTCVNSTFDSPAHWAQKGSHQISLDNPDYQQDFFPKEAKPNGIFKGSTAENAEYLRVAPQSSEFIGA

Regarding `C=CC(=O)Nc1cccc(Nc2cc(Nc3cccc(Br)c3)ncn2)c1` [I-1, N-{3-[6-(3-bromophenylamino)-pyrimidin-4-ylamino]-phenyl}-2-propenamide], the pIC50 at EGFR (WT) and on JAK3 was not below 8.00 in each case.
On to `C=CC(=O)Nc1cccc(Nc2cc(Nc3ccc(Oc4ccccc4)cc3)ncn2)c1` [I-13, N-{3-[6-(4-phenoxyphenylamino)-pyrimidin-4-ylamino]phenyl}-2 propenamide], for which the pIC50 at EGFR (WT) was not below 8.00; at BMX, not below 8.00; at JAK3, 6.00 to 7.00.
As to `C=CC(=O)Nc1cccc(Nc2cc(Nc3ccc(Oc4ccccc4)cc3)ncn2)n1` [I-63], the values for the pIC50 on EGFR (WT), at BMX and on JAK3 were not below 8.00, not below 8.00 and 7.00 to 8.00, respectively.
As to `CN(C)C/C=C/C(=O)Nc1cccc(Nc2cc(Nc3ccc(Oc4ccccc4)cc3)ncn2)n1` [I-64, (E)-4-(dimethylamino)-N-(6-(6-(4-phenoxyphenylamino)pyrimidin-4-ylamino)pyridine-2-yl)but-2-enamide], the pIC50 on BMX is 7.00 to 8.00; at JAK3, not below 8.00.
Turning to `C=CC(=O)Nc1cccc(Nc2cc(Oc3cccc(C)c3)ncn2)n1` [I-65], the pIC50 at EGFR (WT), at BMX and on JAK3 was not below 8.00 each time.
Regarding `C=CC(=O)Nc1cccc(Nc2cc(Oc3ccc(Oc4ccccc4)cc3)ncn2)n1` [I-66], the pIC50 on EGFR (WT) is not below 8.00; on BMX, not below 8.00; on JAK3, 6.00 to 7.00.
On to `C=CC(=O)N(C)c1cccc(Nc2cc(Nc3ccc(Oc4ccccc4)cc3)ncn2)n1` [I-78, N-methyl-N-(6-(6-(4-phenoxyphenylamino)pyrimidin-4-ylamino)pyridin-2-yl)acrylamide], for which the pIC50 was not below 8.00 on EGFR (WT), 7.00 to 8.00 on BMX and not below 8.00 at JAK3.
In the case of `CN(C)C/C=C/C(=O)N(C)c1cccc(Nc2cc(Nc3ccc(Oc4ccccc4)cc3)ncn2)n1` [I-79, (E)-4-(dimethylamino)-N-methyl-N-(6-(6-(4-phenoxyphenylamino)pyrimidin-4-ylamino)pyridine-2-yl)but-2-enamide], the pIC50 on EGFR (WT), on BMX and at JAK3 was not below 8.00 each time.
With `Cc1cccc(Oc2cc(Nc3cccc(NC(=O)/C=C/CN(C)C)n3)ncn2)c1` [I-81], the pIC50 on EGFR (WT), on BMX and at JAK3 was not below 8.00 each time.
Regarding `C=CC(=O)Nc1cccc(Nc2cc(Nc3ccccc3)ncn2)n1` [I-94], the pIC50 on EGFR (WT), on BMX and on JAK3 was not below 8.00 each time.
